Assays:
[1] = Decomposition of KP1019 in cell culture medium; type: in vitro ADME; settings: 310 K; reported previously and confirmed in this work
HepG2 cells = experiment: Cellular Ru uptake by HepG2 cells (ICP-MS); type: cell-based, human; settings: HepG2, 60 μM Ru, 24 h; B2 vs B1
Experimental: Human hepatoma (HepG2) cells were originally received from the American Type Culture Collection (ATCC, Cat. No. HB-8065) and cultured as described previously. This cell line was used for Tf-dependent metal uptake studies because of the high expression levels of human TfR1 [43]. For treatments, the cells were grown to confluence in 24-well plates, using Advanced DMEM (Dulbecco’s modified Eagle’s minimal essential medium, Invitrogen Cat. No. 12491-015), supplemented with L-glutamine (2.0 mM), antibiotic-antimycotic mixture (100 mg mL^−1 penicillin, 100 mg mL^−1 steptomycin and 0.25 mg mL^−1 amphotericin B) and fetal calf serum (heat-inactivated, 2% v/v). Confluent cell layers were washed with serum-free treatment medium (DMEM, Invitrogen Cat. No. 19938-025), supplemented with glutamine, antibiotic-antimycotic mixture and 1.0 mg mL^−1 AlbuMax (Gibco Cat. No. 11020-021). […] After washing, the wells were filled with the treatment medium containing metal additions (detailed in B1–B9 of Table 1). The treatment media were sterilized by filtration through 0.2 µm membrane filters, and pre-equilibrated for 24 h at 310 K and 5% CO2 prior to the addition to cells, except for sample B1 that was used immediately after preparation. All the treatments were performed in triplicate, using random well positions to avoid experimental bias.
After 24 h incubation with the treatment media (B1–B9 in Table 1), the medium from each well was collected for the determination of Ru–protein binding and BLI analyses, and the wells were washed twice with PBS (0.50 mL/well). […]
The values of metal uptake were normalized using protein content in cell lysates. For protein determination, Bradford reagent (Sigma Cat. No B6916; 98 µL) was mixed with a small aliquot (2.0 µL) of each cell lysate, and the absorbance at 600 nm was measured using a Victor V3 plate reader. […] The test and calibration samples were analyzed in triplicate. […]

SMILES: [Cl-].[Cl-].[Cl-].[Cl-].[Ru+3].c1ccc2[nH][nH+]cc2c1.c1ccc2[nH]ncc2c1.c1ccc2[nH]ncc2c1 [KP1019, (IndH)[Ru^IIICl4(Ind)2]]
- Decomposition in cell culture medium (time) [1]: within several hours
- Decrease in Ru uptake after decomposition in cell culture medium for 24 h prior to addition to cells, vs fresh solution (HepG2 cells): ~ 30 fold
